Where only a bound is given, the exact number is not on record here.

Chain of FGFR3 enzyme (Millipore) (P22607 23-806): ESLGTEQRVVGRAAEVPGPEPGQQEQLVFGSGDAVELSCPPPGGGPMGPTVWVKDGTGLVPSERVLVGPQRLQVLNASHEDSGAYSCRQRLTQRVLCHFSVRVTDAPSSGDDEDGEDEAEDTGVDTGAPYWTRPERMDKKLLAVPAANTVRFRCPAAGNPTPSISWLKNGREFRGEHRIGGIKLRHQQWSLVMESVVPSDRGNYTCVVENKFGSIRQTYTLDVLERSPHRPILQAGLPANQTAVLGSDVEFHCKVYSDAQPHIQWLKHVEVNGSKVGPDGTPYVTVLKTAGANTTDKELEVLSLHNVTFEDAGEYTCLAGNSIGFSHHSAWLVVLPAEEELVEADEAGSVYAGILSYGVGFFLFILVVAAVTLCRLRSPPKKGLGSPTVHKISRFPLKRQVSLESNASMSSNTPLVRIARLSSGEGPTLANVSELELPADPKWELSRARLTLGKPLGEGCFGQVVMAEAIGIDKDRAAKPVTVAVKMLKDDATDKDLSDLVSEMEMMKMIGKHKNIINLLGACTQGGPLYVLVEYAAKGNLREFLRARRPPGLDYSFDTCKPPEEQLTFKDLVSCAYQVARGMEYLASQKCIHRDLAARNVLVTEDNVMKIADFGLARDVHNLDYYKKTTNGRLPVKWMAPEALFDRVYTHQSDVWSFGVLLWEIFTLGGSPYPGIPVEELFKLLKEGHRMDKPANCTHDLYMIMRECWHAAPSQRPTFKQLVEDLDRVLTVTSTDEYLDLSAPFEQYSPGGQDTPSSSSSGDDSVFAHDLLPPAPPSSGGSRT

This experiment concerns the target FGFR3 enzyme (Millipore) (Homo sapiens (Human), UniProt P22607). The experiment in a line: FGFR3 Enzymatic Assay. The experiment is classed as biochemical. Conditions: FRET peptide phosphorylation, 140 μM ATP. In a few lines:
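FGFR3 preincubated 5-10 min with serially diluted inhibitor in 50 mM HEPES pH 7.5, 10 mM MgCl2, 1 mM EGTA, 5 mM DTT, then reacted 1 h at 25 °C. Peptide phosphorylation detected by FRET; IC50 from variable-slope sigmoidal fit.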
As to `CC(C(=O)NCC1CCCO1)c1ccc(-c2ccc3c(c2)ncn3-c2cccc(NC(=O)NCC(F)(F)F)c2)cc1` (stereo not shown) [Example 18, N-(Tetrahydrofuran-2-ylmethyl)-2-(4-{1-[3-({[(2,2,2-trifluoroethyl)amino]carbonyl}amino)phenyl]-1H-benzimidazol-5-yl}phenyl)propanamide], the IC50 is below 0.01 µM.
`Cn1cc(C(=O)N2CCC(n3cc(-c4cnn5c(-c6cccc(NC(=O)NCC(F)(F)F)c6)cnc5c4)cn3)CC2)cn1` [Example 32, N-{3-[7-(1-{1-[(1-Methyl-1H-pyrazol-4-yl)carbonyl]piperidin-4-yl}-1H-pyrazol-4-yl)imidazo[1,2-b]pyridazin-3-yl]phenyl}-N′-(2,2,2-trifluoroethyl)urea] yielded an IC50 below 0.01 µM.
As for `O=C(NCC(F)(F)F)Nc1cccc(-c2cnc3cc(-c4cnn(C5CCN(C(=O)C6CC(O)C6)CC5)c4)cnn23)c1` (stereo not shown) [Example 47, N-{3-[7-(1-{1-[(3-hydroxycyclobutyl)carbonyl]piperidin-4-yl}-1H-pyrazol-4-yl)imidazo[1,2-b]pyridazin-3-yl]phenyl}-N′-(2,2,2-trifluoroethyl)urea], the IC50 was below 0.01 µM.
The result for `O=C(NCC(F)(F)F)Nc1cccc(-n2cnc3cc(-c4cccc(C(=O)NCC5CCCO5)c4)ccc32)c1` (stereo not shown) [Example 2, N-(Tetrahydrofuran-2-ylmethyl)-3-{1-[3-({[(2,2,2-trifluoroethyl)amino]carbonyl}amino)phenyl]-1H-benzimidazol-5-yl}benzamide] reads below 0.01 µM; that for `CN1CCC(CNC(=O)c2cccc(-c3ccc4c(c3)ncn4-c3cccc(NC(=O)NCC(F)(F)F)c3)c2)CC1` [Example 3, N-[(1-Methylpiperidin-4-yl)methyl]-3-{1-[3-({[(2,2,2-trifluoroethyl)amino]carbonyl}amino)phenyl]-1H-benzimidazol-5-yl}benzamide], below 0.01 µM; that for `CC(C(=O)NC1CC1)n1cc(-c2cnn3c(-c4cccc(NC(=O)NCC(F)(F)F)c4)cnc3c2)cn1` (stereo not shown) [Example 54, N-Cyclopropyl-2-(4-{3-[3-({[(2,2,2-trifluoroethyl)amino]carbonyl}amino)phenyl]imidazo[1,2-b]pyridazin-7-yl}-1H-pyrazol-1-yl)propanamide], below 0.01 µM.
Consider `O=C(NCC(F)(F)F)Nc1cccc(-c2cnc3cc(-c4cnn(C5CCN(C(=O)CC6CCCO6)CC5)c4)cnn23)c1` (stereo not shown) [Example 50, N-[3-(7-{1-[1-(tetrahydrofuran-2-ylacetyl)piperidin-4-yl]-1H-pyrazol-4-yl}imidazo[1,2-b]pyridazin-3-yl)phenyl]-N′-(2,2,2-trifluoroethyl)urea], for which the IC50 is below 0.01 µM.
`CC(C(=O)NCCN1CCCC1=O)n1cc(-c2cnn3c(-c4cccc(NC(=O)NCC(F)(F)F)c4)cnc3c2)cn1` (stereo not shown) [Example 62, N-[2-(2-Oxopyrrolidin-1-yl)ethyl]-2-(4-{3-[3-({[(2,2,2-trifluoroethyl)amino]carbonyl}amino)phenyl]imidazo[1,2-b]pyridazin-7-yl}-1H-pyrazol-1-yl)propanamide] had a 50% inhibitory concentration (IC50) below 0.01 µM.
Turning to `CC(C(=O)N1CCN(C)CC1)n1cc(-c2cnn3c(-c4cccc(NC(=O)NCC(F)(F)F)c4)cnc3c2)cn1` (stereo not shown) [Example 60, N-[3-(7-{1-[1-Methyl-2-(4-methylpiperazin-1-yl)-2-oxoethyl]-1H-pyrazol-4-yl}imidazo[1,2-b]pyridazin-3-yl)phenyl]-N′-(2,2,2-trifluoroethyl)urea], the IC50 was below 0.01 µM.
Next, `CC(C(=O)N1CC(C#N)C1)n1cc(-c2cnn3c(-c4cccc(NC(=O)NCC(F)(F)F)c4)cnc3c2)cn1` (stereo not shown) [Example 72, N-[3-(7-{1-[2-(3-Cyanoazetidin-1-yl)-1-methyl-2-oxoethyl]-1H-pyrazol-4-yl}imidazo[1,2-b]pyridazin-3-yl)phenyl]-N′-(2,2,2-trifluoroethyl)urea]: below 0.01 µM.

The term IC50 denotes the concentration needed to halve the response being measured. Read a low IC50 as inhibition by little substance.

The values are drawn from patent US10213427B2 (Incyte Corporation, priority 2010, dated 2019).
